Reference: patent publication US20200340984A1, “METHODS OF QUANTIFYING CFTR PROTEIN EXPRESSION” (Proteostasis Therapeutics, Inc., priority 2017, published 2020)

Columns and labels:
CFTR [1] = assay: Western blot analysis of CFTR expression, HT-29 cells; type: cell-based
Description: Cells were washed with ice-cold phosphate-buffered saline (PBS) and lysed in Pierce™ immunoprecipitation (IP)-Lysis Buffer (Thermo Fisher Scientific Inc., Grand Island, N.Y.) containing protease inhibitor cocktail (cOmplete™ Mini Protease Inhibitor Cocktail tablets, Roche Diagnostics GmBH, Mannheim, Germany). The cells were incubated with lysis buffer for 30 minutes on ice and centrifuged for 30 minutes at 13,000 rpm. Supernatant was collected and protein concentration was assayed by Pierce™ BCA Protein Assay Kit (Thermo Fisher Scientific). The cell lysates were loaded on a NuPAGE 3%-8% Tris-Acetate Gel (Thermo Fisher Scientific), and transferred onto a nitrocellulose membrane (Trans-Blot® Turbo™ Mini Nitrocellulose Transfer Packs, Bio-Rad, Hercules, Calif.). The membrane was blocked in tris-buffered saline with Tween-20 (TBST) and 5% milk and probed with mouse CFTR antibody (UNC596, 1:500 dilution) at 4° C. with gentle shaking overnight. Next day, membrane was washed three times with (TBST). Then, the membrane was incubated for 2 hours with anti-mouse IgG, horseradish peroxidase (HRP)-linked antibody (Cell Signaling Technology, Beverly, Mass.) at 1:2000 dilution. […]

CFTR [2] = assay: CFTR AlphaLISA, LS411N cells; type: cell-based; conditions: CFTR protein, LS411N intestinal carcinoma cell line
CFTR mRNA = CFTR mRNA qPCR, HNE-CF (F508del) cultures; type: cell-based, human; conditions: qPCR (CFTR/Actin RNA), HNE-CF (homozygous F508del), 10 μM, 24 hours, vs DMSO
Description: Primary human airway epithelial cells of nasal origin (HNEs) from CF donors homozygous for the F508del mutation (HNE CF) and non-CF donors (HNE WT) were purchased from Epithelix Sàrl (Geneva, Switzerland). The cells were cultured and differentiated as previously described (Pranke et al. (2017) Sci Rep. 7(1):7375). The primary cells were apically mucous washed for 30 minutes prior to treatment with the amplifier PTI-CH (1, 3, or 10 μM) and DMSO for 24 hours.
For isolation of RNA from cells, the filters were washed with PBS at room temperature. Total RNA was isolated using the Qiagen RNeasy Plus Universal Mini kit (Qiagen, Oslo, Norway). […] The RNA was quantified by NanoDrop (Thermo Fisher Scientific).
For Reverse transcription, 500 ng of total RNA was used for cells and 150 ng of RNA for nasal brushing sample was reverse transcribed using a High-Capacity Transcription Kit (Thermo Fisher Scientific) according to manufacturer's protocol. The CFTR transcript levels were measured using a human-specific CFTR primer (Catalog Number Hs00357011_ml, FAM-labeled Life Technologies). […]
To further confirm this finding, human nasal epithelial (HNE) cultures obtained from a non-CF (HNE-WT) or CF (HNE-F508del) donor were treated with and amplifier compound. Following 24-hour treatment period, filters were analyzed for either mRNA or protein analyses. […]

O=C(NCCCn1nncc1CO)c1cc(-c2ccccc2)on1 [PTI-CH]
fold changes in CFTR expression (CFTR [1]): 1.4 × | Fold change (PTI-CH/DMSO) (CFTR [2]): 1.9 ± 0.13 | increase in CFTR mRNA expression (CFTR mRNA): approximately 3 fold
